The OligoGym collection
Where “and” joins values, the source holds several entries; their conditions need not be identical. Identical values can stand only once. After the bases stand the sugars from the 5' end (letter, count) and the backbone: PS all phosphorothioate, else s phosphorothioate and o phosphodiester by linkage. Methylation of C is not given here. k = constrained ethyl (cEt); d = 2'-deoxy (DNA)

Molecular target: MALAT1
Settings: ASO, A431, 0.005 µM

GGTCATCTATTCACAA (sugars k3 d10 k3, PS)
target mRNA inhibition: 29%

CCCAAAAGCTCTATAC (sugars k3 d10 k3, PS)
target mRNA inhibition: 6%

CAGCTAAGATAGCAGC (sugars k3 d10 k3, PS)
target mRNA inhibition: 8%

AGATGGACATTGCCTC (sugars k3 d10 k3, PS)
target mRNA inhibition: 48%

AGGCTATTACCTGAAA (sugars k3 d10 k3, PS)
target mRNA inhibition: -5%

CTACCATATCCAAACA (sugars k3 d10 k3, PS)
target mRNA inhibition: 21%

TTTCCCCAATCAAGAT (sugars k3 d10 k3, PS)
target mRNA inhibition: -4%

TATTGGAAAACTTAAC (sugars k3 d10 k3, PS)
target mRNA inhibition: 26%

AGAGGGAGTTGAGGCA (sugars k3 d10 k3, PS)
target mRNA inhibition: 40%

TGTTAACAATTTGCAG (sugars k3 d10 k3, PS)
target mRNA inhibition: 20%

TCAACAATCACTACTC (sugars k3 d10 k3, PS)
target mRNA inhibition: 16%

GCACAGCGGTACACTC (sugars k3 d10 k3, PS)
target mRNA inhibition: 9%

GCCAAGCACTCATATG (sugars k3 d10 k3, PS)
target mRNA inhibition: 24%

TCCTAGCTTCACCACC (sugars k3 d10 k3, PS)
target mRNA inhibition: 44%

ACATTAAGTTGGTAAT (sugars k3 d10 k3, PS)
target mRNA inhibition: 4%

GGTTACCATAAGTAAG (sugars k3 d10 k3, PS)
target mRNA inhibition: 37%

CATCAAGGCACTGATC (sugars k3 d10 k3, PS)
target mRNA inhibition: 13%

CTTACTGGGTCTGGCT (sugars k3 d10 k3, PS)
target mRNA inhibition: 41%

GAAAGATTTGAGCTGC (sugars k3 d10 k3, PS)
target mRNA inhibition: -10%

TCTAACAGCACATCAT (sugars k3 d10 k3, PS)
target mRNA inhibition: 22%

TGAACTATCACAATTC (sugars k3 d10 k3, PS)
target mRNA inhibition: 24%

CGCCTCTTAAAGCACT (sugars k3 d10 k3, PS)
target mRNA inhibition: -12%

ATACTTCATTACCCCA (sugars k3 d10 k3, PS)
target mRNA inhibition: 50%

ATTTAACTTCCCCCAG (sugars k3 d10 k3, PS)
target mRNA inhibition: 18%

TGCCACAGGAAGGCTC (sugars k3 d10 k3, PS)
target mRNA inhibition: -10%

GATATTGTGCTGTTAC (sugars k3 d10 k3, PS)
target mRNA inhibition: -17%

AATTACCTAAACCCAC (sugars k3 d10 k3, PS)
target mRNA inhibition: 0%

GCCTATAAGGACAGCT (sugars k3 d10 k3, PS)
target mRNA inhibition: 11%

AGATCGCCTTCAAATT (sugars k3 d10 k3, PS)
target mRNA inhibition: 41%

AGGGCTTTACTTTCCA (sugars k3 d10 k3, PS)
target mRNA inhibition: -5%

CACAAGGCAAATCGCC (sugars k3 d10 k3, PS)
target mRNA inhibition: 20%

GAAATCGGAGCAGCAC (sugars k3 d10 k3, PS)
target mRNA inhibition: 1%

AAGACTAAAGGCTTCA (sugars k3 d10 k3, PS)
target mRNA inhibition: 21%

CCCAGTTCAATACTTT (sugars k3 d10 k3, PS)
target mRNA inhibition: 25%

GAAAACTCCCCCCCGC (sugars k3 d10 k3, PS)
target mRNA inhibition: -4%

CCTCAATGCCTACCGC (sugars k3 d10 k3, PS)
target mRNA inhibition: 17%

TCACCAAATCGCACTG (sugars k3 d10 k3, PS)
target mRNA inhibition: 20%

TCGCAGACAAAGTTTC (sugars k3 d10 k3, PS)
target mRNA inhibition: 31%

AATTAATGCACTGGTA (sugars k3 d10 k3, PS)
target mRNA inhibition: 19%

ACTAAGCGAATGGCTT (sugars k3 d10 k3, PS)
target mRNA inhibition: -9%

TGCTCGCCTCCTCCGT (sugars k3 d10 k3, PS)
target mRNA inhibition: 34%

TTATGGATCATGCCCA (sugars k3 d10 k3, PS)
target mRNA inhibition: 28%

AGGTATAGTTTACCAC (sugars k3 d10 k3, PS)
target mRNA inhibition: -7%

GTACCTGAAAAATCTT (sugars k3 d10 k3, PS)
target mRNA inhibition: 3%

AGACTAAAGGCTTCAG (sugars k3 d10 k3, PS)
target mRNA inhibition: 12%

TGAAGTCAAGACAACT (sugars k3 d10 k3, PS)
target mRNA inhibition: 1%

TCTAAAAGCATTGCCC (sugars k3 d10 k3, PS)
target mRNA inhibition: 29%

CCCAGCATTACAGTTC (sugars k3 d10 k3, PS)
target mRNA inhibition: 10%

TTTAAAAGATCGCCTT (sugars k3 d10 k3, PS)
target mRNA inhibition: 50%

CTCAATTTGGCTATCA (sugars k3 d10 k3, PS)
target mRNA inhibition: 60% and 80%

TTGAACCCCGTCCTGG (sugars k3 d10 k3, PS)
target mRNA inhibition: 12%

CGACCTCACGGATTTT (sugars k3 d10 k3, PS)
target mRNA inhibition: 16%

CTGAAAACTCCCCCCC (sugars k3 d10 k3, PS)
target mRNA inhibition: -2%

TGATCTGACTTTGTAT (sugars k3 d10 k3, PS)
target mRNA inhibition: 47%

AGTCTCGGGCTGCAGG (sugars k3 d10 k3, PS)
target mRNA inhibition: 3%

TCTCATACACTCACTA (sugars k3 d10 k3, PS)
target mRNA inhibition: 11%

AATTACACCAGTCCTT (sugars k3 d10 k3, PS)
target mRNA inhibition: 42%

GCGAATGGCTTTGTCT (sugars k3 d10 k3, PS)
target mRNA inhibition: 7%

AGCTTCAATCACAAAT (sugars k3 d10 k3, PS)
target mRNA inhibition: 23%

GAACTATCACAATTCT (sugars k3 d10 k3, PS)
target mRNA inhibition: 3%

TAACCTATTGACTATA (sugars k3 d10 k3, PS)
target mRNA inhibition: 22%

ATGGAGGTATGACATA (sugars k3 d10 k3, PS)
target mRNA inhibition: 20%

AGCGGGATCAGAACAG (sugars k3 d10 k3, PS)
target mRNA inhibition: 43%

CTGCGCTGGCTGCCTC (sugars k3 d10 k3, PS)
target mRNA inhibition: 30%

AGCACCGCTTGAGATT (sugars k3 d10 k3, PS)
target mRNA inhibition: 42% and 20%

CATGACCCTACTGAAG (sugars k3 d10 k3, PS)
target mRNA inhibition: 2%

TTACAGAAGTCTCGGG (sugars k3 d10 k3, PS)
target mRNA inhibition: 11%

CTTCTGGAAAAGCTAG (sugars k3 d10 k3, PS)
target mRNA inhibition: 8%

CCGCACGGAAATTTTT (sugars k3 d10 k3, PS)
target mRNA inhibition: 15%

CTACTTAGCTGTGGTT (sugars k3 d10 k3, PS)
target mRNA inhibition: 33%

CTAACAGCACATCATG (sugars k3 d10 k3, PS)
target mRNA inhibition: 32%

CTAGGATCCTCTACGC (sugars k3 d10 k3, PS)
target mRNA inhibition: 11%

TGGCGGACTTTCTCCC (sugars k3 d10 k3, PS)
target mRNA inhibition: 9%

TAGTAGCTTTTTGATG (sugars k3 d10 k3, PS)
target mRNA inhibition: 31%

TTGCCCGCTTTCCCCC (sugars k3 d10 k3, PS)
target mRNA inhibition: 19%

TGTCTAAGAGGTTATT (sugars k3 d10 k3, PS)
target mRNA inhibition: 10%

TACACTCCTTCTCTAA (sugars k3 d10 k3, PS)
target mRNA inhibition: -18%

GACAAGATTCATGAGT (sugars k3 d10 k3, PS)
target mRNA inhibition: 47%

ATCCTGAAATCCCCTA (sugars k3 d10 k3, PS)
target mRNA inhibition: 8%

GCAGGCAAATTAATGG (sugars k3 d10 k3, PS)
target mRNA inhibition: 45%

GCTACTATATTTAAGG (sugars k3 d10 k3, PS)
target mRNA inhibition: 29%
